Laboratory results from the supplement of paper PMC10307832.

Key:
Assay in all cases: relative viability (nuclei count vs DMSO), 5 days (fraction); higher = more cells survive
Linifanib + Vorinostat = compound: Cc1ccc(F)c(NC(=O)Nc2ccc(-c3cccc4[nH]nc(N)c34)cc2)c1 [Linifanib] + O=C(CCCCCCC(=O)Nc1ccccc1)NO [Vorinostat] (partner 1 µM)
Outline: (§1)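 Dosing by pin tool came one day after lung cancer cell lines were seeded in 1536-well plates, using either one drug or a fixed anchor-drug dose plus five library-drug doses (not always all listed) in √10 steps. After 5 days, nuclei were counted on 4× images. Relative viability is treated-well nuclei count divided by vehicle-well nuclei count, and values are medians of duplicate plates.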

Linifanib + Bortezomib = compound: Cc1ccc(F)c(NC(=O)Nc2ccc(-c3cccc4[nH]nc(N)c34)cc2)c1 [Linifanib] + CC(C)C[C@H](NC(=O)[C@H](Cc1ccccc1)NC(=O)c1cnccn1)B(O)O [Bortezomib] (partner 0.002 µM)
Outline: as §1

Linifanib + Olaparib = compound: Cc1ccc(F)c(NC(=O)Nc2ccc(-c3cccc4[nH]nc(N)c34)cc2)c1 [Linifanib] + O=C(c1cc(Cc2n[nH]c(=O)c3ccccc23)ccc1F)N1CCN(C(=O)C2CC2)CC1 [Olaparib] (partner 8 µM)
Outline: as §1

Linifanib + Navitoclax = compound: Cc1ccc(F)c(NC(=O)Nc2ccc(-c3cccc4[nH]nc(N)c34)cc2)c1 [Linifanib] + CC1(C)CCC(c2ccc(Cl)cc2)=C(CN2CCN(c3ccc(C(=O)NS(=O)(=O)c4ccc(N[C@H](CCN5CCOCC5)CSc5ccccc5)c(S(=O)(=O)C(F)(F)F)c4)cc3)CC2)C1 [Navitoclax] (partner 0.5 µM)
Outline: as §1

Linifanib + AZD7762 = compound: Cc1ccc(F)c(NC(=O)Nc2ccc(-c3cccc4[nH]nc(N)c34)cc2)c1 [Linifanib] + NC(=O)Nc1cc(-c2cccc(F)c2)sc1C(=O)N[C@H]1CCCNC1 [AZD7762] (partner 0.2 µM)
Outline: as §1

Linifanib + Decitabine = compound: Cc1ccc(F)c(NC(=O)Nc2ccc(-c3cccc4[nH]nc(N)c34)cc2)c1 [Linifanib] + Nc1ncn([C@H]2C[C@H](O)[C@@H](CO)O2)c(=O)n1 [Decitabine] (partner 2 µM)
Outline: as §1

Cell Line	relative viability (Linifanib + Vorinostat; first compound 0.03162 µM)	relative viability (Linifanib + Vorinostat; first compound 0.1 µM)	relative viability (Linifanib + Vorinostat; first compound 0.3162 µM)	relative viability (Linifanib + Bortezomib; first compound 0.03162 µM)	relative viability (Linifanib + Bortezomib; first compound 0.1 µM)	relative viability (Linifanib + Bortezomib; first compound 0.3162 µM)	relative viability (Linifanib + Olaparib; first compound 0.03162 µM)	relative viability (Linifanib + Olaparib; first compound 0.1 µM)	relative viability (Linifanib + Olaparib; first compound 0.3162 µM)	relative viability (Linifanib + Navitoclax; first compound 0.03162 µM)	relative viability (Linifanib + Navitoclax; first compound 0.1 µM)	relative viability (Linifanib + Navitoclax; first compound 0.3162 µM)	relative viability (Linifanib + AZD7762; first compound 0.03162 µM)	relative viability (Linifanib + AZD7762; first compound 0.1 µM)	relative viability (Linifanib + AZD7762; first compound 0.3162 µM)	relative viability (Linifanib + Decitabine; first compound 0.03162 µM)	relative viability (Linifanib + Decitabine; first compound 0.1 µM)	relative viability (Linifanib + Decitabine; first compound 0.3162 µM)
201T	1.01	0.981	1.02	1.05	1.09	1.08	0.839	0.825	0.842	1.2	1.23	1.21	0.603	0.606	0.654	0.867	0.862	0.891
A-427	0.884	0.86	0.918	1.04	1.05	0.949	0.722	0.766	0.732	1.07	0.986	0.998	0.735	0.823	0.779	0.583	0.612	0.579
ABC-1	1.19	1.31	0.906	0.25	0.343	0.285	0.765	0.725	0.681	–	–	–	0.869	–	0.767	0.961	0.942	0.95
BEN	0.622	0.558	0.667	0.723	0.975	0.778	1.11	0.942	0.985	0.069	0.203	0.0675	0.693	0.78	0.764	0.772	0.818	0.696
CAL-12T	0.884	0.986	0.724	1.06	1.01	0.8	0.642	0.703	0.702	1.18	1.21	1.04	0.623	0.661	0.588	–	–	–
COR-L23	0.462	0.402	0.384	1.12	1.17	0.831	0.337	0.384	0.302	1.05	1.04	0.857	–	–	–	0.448	0.455	0.396
COR-L 105	0.86	0.809	0.796	0.954	0.851	0.735	0.66	0.584	0.754	0.808	0.938	0.796	–	–	–	0.602	0.73	0.585
ChaGo-K-1	0.767	0.807	0.775	0.946	1.18	0.926	0.456	0.445	0.448	0.991	1.17	0.978	0.881	0.881	0.925	0.497	0.531	0.509
